Reference: US11959929B2, “Method of quantifying lysergic acid diethylamide (LSD) and 2,3-dihydro-3-hydroxy-2-oxo lysergide (O-H-LSD) in human plasma” (Universitatsspital Basel, priority 2020, dated 2024)
Where “and” joins values, the source holds several entries; their conditions need not be identical. Identical values can stand only once.

Legend:
[1] = Reinjection reproducibility of worked-up plasma samples (overnight at 10° C. in autosampler; 1 week at −20° C.); assay type: physicochemical, human; details: for Change in concentration: 1 night at 10° C. in the autosampler vs Baseline; for Change in concentration [%]: 8 days at −20° C. vs Baseline; for Accuracy: single QC replicate
Excerpt: (§1) Each analyte had to be stable in human plasma for at least three freeze-thaw cycles (for repeated sample preparations) and at ambient temperature for at least eight hours (maximal duration of sample preparation). Measured samples should be stable for a second injection when the first analytical run was not valid. The analytes had to be stable in the matrix at the intended storage temperatures and study duration.
(§2) An analyte was considered stable at one of the above tests when no increase or decrease of the analyte concentration of more than 15% for the mean of at least three analyzed QC samples at low, medium and at high concentration was observed.
Worked-up and measured Cal and QC samples (prepared in human plasma) of a valid run were repeatedly analyzed. Reinjection was performed after overnight storage at 10° C. (autosampler) and after 1-week storage at −20° C. The run was checked according to the acceptance criteria for validation runs. The calculated mean values for QC samples were compared between the original and reinjected run.

[2] = Bench-top (short-term) stability test in human plasma, 8 hours at ambient temperature; assay type: physicochemical; details: for Change in concentration [%]: 8 h at RT vs Baseline; for Accuracy: single QC replicate
Excerpt: as §1, §2
Seven of each LLOQ, QCLOW, QCMID, QCHIGH, and ULOQ samples in human plasma were thawed at ambient temperature and kept at this temperature for 8 hours. Afterwards, the samples were worked up and analyzed. The values of the concentrations in the “short-term” samples were compared with freshly processed QC samples. Concentrations were calculated based on two freshly prepared CAL sets measured at the beginning and the end of the validation run.

[3] = Clinical application: plasma concentration-time profile of LSD and O-H-LSD after a single oral 5 μg LSD dose in healthy volunteers; assay type: in vivo, human; details: three healthy volunteers
Experimental: To examine the application of the developed method, LSD and O-H-LSD concentrations were quantified in plasma samples of three healthy volunteers receiving a single oral dose of 5 μg. This corresponds to a very low LSD dose, used in LSD microdosing clinical trials (Holze et al., 2021a). The study was conducted in accordance with the Declaration of Helsinki and approved by the Medical Ethics Committee of the Academic Hospital of Maastricht and Maastricht University. The use of LSD in humans was authorized by the Dutch Drug Enforcement Administration. All volunteers provided written informed consent prior to study participation. To establish concentration time profiles, blood samples were collected in lithium heparin coated tubes at the following time points: 0, 0.5, 1, 1.5, 2, 3, 4, 6 after treatment. Blood samples were centrifuged, and plasma was frozen at −20° C. until analysis.
The application of the method was assessed by analyzing the PK of LSD and O-H-LSD in three healthy volunteers treated with an oral dose of 5 μg LSD base (FIG. 5). An oral dose of 5 μg LSD base in ethanol (Holze et al., 2021) was administered to three healthy volunteers. Plasma concentrations of LSD and O-H-LSD were quantified before and up to six hours post-treatment. […] Mean values and the standard deviations are illustrated.
The maximal plasma level of LSD and O-H-LSD was on average 178 pg/ml (SD: 30.6 pg/ml) and 10.4 pg/ml (SD: 2.59 pg/ml), respectively. LSD reached Tmax approximately after 1 hour post-treatment, whereas O-H-LSD peaked after 3 hours. The LSD concentrations measured after a dose of only 5 μg were approximately 7 to 18 times higher than the methods limit of quantification. Thus, the PK of LSD could straightforwardly be established also for very low so-called microdoses (Kuypers et al., 2019). In the case of O-H-LSD, a larger amount of plasma sample was required to determine the plasma concentration time profile after a dose of 5 μg. Three times more plasma was utilized (150 instead of 50 μl), which was extracted as outlined above using however three-fold more acetonitrile for the extraction. Sensitivity was increased by evaporating the extract and reconstituting the residue in a mixture of 150 μl of mobile phase A and mobile phase B (9/1 v/v). […] In future, it will also be considered to inject a larger amount of extract, which is in a first step retained and concentrated on a trapping column. In a second step, the direction of the flow is inverted and so that the sample can be loaded and eluted on the analytical column. This column switching procedure, will increase the sensitivity in the event that the sample can be retained on the trap column. Importantly, the time-consuming solvent evaporation step can thereby be avoided.

[4] = LLOQ: 10 pg/ml, reinjection after 8 days at −20° C.
[5] = QCHIGH: 1000 pg/ml, reinjection after 8 days at −20° C.
[6] = QCLOW: 25 pg/ml, reinjection after 8 days at −20° C.
[7] = QCMID: 100 pg/ml, reinjection after 8 days at −20° C.
[8] = ULOQ: 10000 pg/ml, reinjection after 8 days at −20° C.

CCN(CC)C(=O)C1C=C2c3cccc4c3C(O)(C[C@H]2N(C)C1)C(=O)N4 (some centres unmarked) [O-H-LSD, 2,3-dihydro-3-hydroxy-2-oxo lysergide]
Change in concentration ([1]; LLOQ: 10 pg/ml): 1.86%
Change in concentration ([1]; QCHIGH: 1000 pg/ml): 2.08%
Change in concentration ([1]; QCLOW: 25 pg/ml): −0.149%
Change in concentration ([1]; QCMID: 100 pg/ml): −1.59%
Change in concentration ([1]; ULOQ: 10000 pg/ml): 0.101%
Change in concentration [%] ([1]; LLOQ: 10 pg/ml): −2.09%
Accuracy, Intra-assay Mean ([1]; LLOQ: 10 pg/ml, Baseline): 107%
Found at, Intra-assay Mean ([1]; LLOQ: 10 pg/ml, Baseline): 10.7 pg/mL
Accuracy ([1]; LLOQ: 10 pg/ml, Baseline): 108% and 113% and 102% and 88.5% and 120% and 97.8% and 116%
Accuracy, Intra-assay Mean [1, 4]: 104%
Found at, Intra-assay Mean [1, 4]: 10.4 pg/mL
Accuracy [1, 4]: 99.5% and 106% and 116% and 107% and 94.2% and 93.9% and 113%
Change in concentration [%] ([1]; QCHIGH: 1000 pg/ml): −1.05%
Accuracy, Intra-assay Mean ([1]; QCHIGH: 1000 pg/ml, Baseline): 103%
Found at, Intra-assay Mean ([1]; QCHIGH: 1000 pg/ml, Baseline): 1030 pg/mL
Accuracy ([1]; QCHIGH: 1000 pg/ml, Baseline): 103% (2×) and 105% (2×) and 99.6% and 99% and 106%
Accuracy, Intra-assay Mean [1, 5]: 102%
Found at, Intra-assay Mean [1, 5]: 1020 pg/mL
Accuracy [1, 5]: 101% (2×) and 105% and 99.3% and 100% and 102% and 104%
Change in concentration [%] ([1]; QCLOW: 25 pg/ml): −0.294%
Accuracy, Intra-assay Mean ([1]; QCLOW: 25 pg/ml, Baseline): 105%
Found at, Intra-assay Mean ([1]; QCLOW: 25 pg/ml, Baseline): 26.2 pg/mL
Accuracy ([1]; QCLOW: 25 pg/ml, Baseline): 103% and 116* % and 108% (2×) and 109% and 101% and 100%
Accuracy, Intra-assay Mean [1, 6]: 105%
Found at, Intra-assay Mean [1, 6]: 26.1 pg/mL
Accuracy [1, 6]: 104% (2×) and 115% and 109% and 96.5% and 108% and 97.3%
Change in concentration [%] ([1]; QCMID: 100 pg/ml): 1.9%
Accuracy, Intra-assay Mean ([1]; QCMID: 100 pg/ml, Baseline): 103%
Found at, Intra-assay Mean ([1]; QCMID: 100 pg/ml, Baseline): 103 pg/mL
Accuracy ([1]; QCMID: 100 pg/ml, Baseline): 101% and 102% (2×) and 104% and 106% and 108% and 98.5%
Accuracy, Intra-assay Mean [1, 7]: 105%
Found at, Intra-assay Mean [1, 7]: 105 pg/mL
Accuracy [1, 7]: 109% (2×) and 98% and 104% and 106% and 102% and 107%
Change in concentration [%] ([1]; ULOQ: 10000 pg/ml): −1.27%
Accuracy, Intra-assay Mean ([1]; ULOQ: 10000 pg/ml, Baseline): 100%
Found at, Intra-assay Mean ([1]; ULOQ: 10000 pg/ml, Baseline): 10000 pg/mL
Accuracy ([1]; ULOQ: 10000 pg/ml, Baseline): 101% (2×) and 98.5% and 98.4% and 97.7% and 102% (2×)
Accuracy, Intra-assay Mean [1, 8]: 98.8%
Found at, Intra-assay Mean [1, 8]: 9880 pg/mL
Accuracy [1, 8]: 97.3% and 97.6% and 97.5% and 96.9% and 103% and 98.8% and 101%
Deviations of the means of the QCs of the two runs (reinjection) after 8 days at −20° C. ([1]; worked-up human plasma samples, 8 days at −20° C.): −2.09% to +1.9
Deviations of the means of the QCs of the two runs (reinjection) after overnight storage at 10° C. ([1]; worked-up human plasma samples, overnight at 10° C. in the autosampler): −1.59% to +2.08
Accuracy, Intra-assay Mean ([2]; LLOQ: 10 pg/ml, 8 h at RT): 91.2%
Found at, Intra-assay Mean ([2]; LLOQ: 10 pg/ml, 8 h at RT): 9.13 pg/mL
Change in concentration [%] ([2]; LLOQ: 10 pg/ml): 0.176%
Accuracy ([2]; LLOQ: 10 pg/ml, 8 h at RT): 90.4% and 94.3% and 63.8* % and 77.5* % and 83.1% and 101% and 87.9%
Accuracy, Intra-assay Mean ([2]; LLOQ: 10 pg/ml, Baseline): 91.1%
Found at, Intra-assay Mean ([2]; LLOQ: 10 pg/ml, Baseline): 9.11 pg/mL
Accuracy ([2]; LLOQ: 10 pg/ml, Baseline): 95% and 88.9% and 89.4%
Accuracy, Intra-assay Mean ([2]; QCHIGH: 1000 pg/ml, 8 h at RT): 95.1%
Found at, Intra-assay Mean ([2]; QCHIGH: 1000 pg/ml, 8 h at RT): 951 pg/mL
Change in concentration [%] ([2]; QCHIGH: 1000 pg/ml): −1.51%
Accuracy ([2]; QCHIGH: 1000 pg/ml, 8 h at RT): 96% and 100% and 91.8% and 94.6% and 93.6% and 95.8% and 93.9%
Accuracy, Intra-assay Mean ([2]; QCHIGH: 1000 pg/ml, Baseline): 96.6%
Found at, Intra-assay Mean ([2]; QCHIGH: 1000 pg/ml, Baseline): 966 pg/mL
Accuracy ([2]; QCHIGH: 1000 pg/ml, Baseline): 97.7% and 96.2% and 95.9%
Accuracy, Intra-assay Mean ([2]; QCLOW: 25 pg/ml, 8 h at RT): 96.4%
Found at, Intra-assay Mean ([2]; QCLOW: 25 pg/ml, 8 h at RT): 24.1 pg/mL
Change in concentration [%] ([2]; QCLOW: 25 pg/ml): 1.1%
Accuracy ([2]; QCLOW: 25 pg/ml, 8 h at RT): 89.2% and 93.3% and 97.6% and 102% and 103% and 97.1% and 91.9%
Accuracy, Intra-assay Mean ([2]; QCLOW: 25 pg/ml, Baseline): 95.3%
Found at, Intra-assay Mean ([2]; QCLOW: 25 pg/ml, Baseline): 23.8 pg/mL
Accuracy ([2]; QCLOW: 25 pg/ml, Baseline): 94.7% and 91.5% and 99.8%
Accuracy, Intra-assay Mean ([2]; QCMID: 100 pg/ml, 8 h at RT): 95.8%
Found at, Intra-assay Mean ([2]; QCMID: 100 pg/ml, 8 h at RT): 95.8 pg/mL
Change in concentration [%] ([2]; QCMID: 100 pg/ml): 0.652%
Accuracy ([2]; QCMID: 100 pg/ml, 8 h at RT): 97.1% and 91.5% and 95.2% and 98.3% and 94.6% and 99.6% and 94.5%
Accuracy, Intra-assay Mean ([2]; QCMID: 100 pg/ml, Baseline): 95.2%
Found at, Intra-assay Mean ([2]; QCMID: 100 pg/ml, Baseline): 95.2 pg/mL
Accuracy ([2]; QCMID: 100 pg/ml, Baseline): 95.7% and 98.6% and 91.4%
Accuracy, Intra-assay Mean ([2]; ULOQ: 10000 pg/ml, 8 h at RT): 91.1%
Found at, Intra-assay Mean ([2]; ULOQ: 10000 pg/ml, 8 h at RT): 9110 pg/mL
Change in concentration [%] ([2]; ULOQ: 10000 pg/ml): −4.52%
Accuracy ([2]; ULOQ: 10000 pg/ml, 8 h at RT): 90.2% and 93% and 90.7% and 88.2% and 93.2% and 91.5% and 91.1%
Accuracy, Intra-assay Mean ([2]; ULOQ: 10000 pg/ml, Baseline): 95.4%
Found at, Intra-assay Mean ([2]; ULOQ: 10000 pg/ml, Baseline): 9540 pg/mL
Accuracy ([2]; ULOQ: 10000 pg/ml, Baseline): 94.2% and 92.3% and 99.7%
Change in plasma concentration after 8 hours storage at room temperature ([2]; human plasma QC samples, 8 hours at room temperature, vs freshly processed QC): ≤ 4.52%
Tmax (time of peak plasma level post-treatment) ([3]; single oral dose of 5 μg LSD base): 3 h
maximal plasma level (average) ([3]; single oral dose of 5 μg LSD base in ethanol, LC-MS/MS, O-H-LSD measured as metabolite using 150 μl plasma): 10.4 pg/mL
